What was measured:
IL-1β [1] = test: IL-1β in human monocyte-derived macrophages, LPS/MSU stimulation; type: cell-based; settings: 24 h pre-treatment, LPS + MSU 6 h, eight donors
Description: Human monocytes were enriched and isolated from a buffy coat of whole blood with a RosetteSep™ Human Monocyte Enrichment Cocktail (Cat.No. 15068, StemCell) and Ficoll-Plaque PLUS (Cat.No. H8889, Sigma). Monocytes were differentiated into macrophages by treatment with 100 ng/mL M-CSF for 6 days at 37° C., 5% CO2. Differentiated macrophages were seeded overnight (50,000 cells/well) in 100 μL of medium in a 96-well white-bottom plate at 37° C., 5% CO2. Cells were treated with a concentration range of MGD or the NLRP3 inhibitor selnoflast (Cat.No. HY-132831, MedChemExpress) for 24 h prior to stimulation with monosodium urate crystals (MSU). Macrophages were stimulated with […] lipopolysaccharide (LPS) and 0.2 mg/mL MSU for 6 h. Medium of stimulated macrophages were collected and assayed for caspase-1 activity directly (Promega G9951) as well as IL-1β (Promega W6010), according to manufacturer's instructions.
(a, b) Human monocyte-derived macrophages pre-treated with a dose-response of Compound 14 or selnoflast (NLRP3 inhibitor) for 24 h and stimulated with a combination of lipopolysaccharide (LPS) and monosodium urate crystals (MSU) for 6 h prior to supernatant collection. Monocytes were isolated from eight human donors. Caspase-1 (a) and IL-1β (b) in the supernatant are measured and data are expressed as percentage relative to mean values of DMSO conditions for each donor (technical triplicates). Means of eight donors are plotted and analyzed using a four-parameter logistic regression model.

[2] = Plasma pharmacokinetics in NHP, 30 mg/kg oral for 7 days; type: in vivo; settings: oral 30 mg/kg daily for 7 days, average male and female
Description: Naïve NHP were orally administered with 7 consecutive daily dose of Compound 14 at 30 mg/kg, n=4 per dose group, 2 male and 2 female. Compound formulation was prepared on the day of administration in 0.5% methyl cellulose (4000 cps) in water and animals were fed twice a day; water was available ad libitum. Plasma collected posted dose on Day 1 and Day 7 were analyzed using a non GLP LC/MS/MS bioanalytical method to evaluate the compound concentration. Brain samples were harvested 24 h after final dose. Lysates for different brain regions (hippocampus, frontal cortex, and cerebellum) were prepared in M-PER lysis buffer and diluted at total protein concentration of 0.4 mg/mL in 0.1× sample buffer (12-230 kDa detection module; Protein Simple). The anti-NEK7 rabbit mAb (Abcam #AB133514) was used at 1:100 and anti-β-actin rabbit mAb (CST #5125) was used at 1:500. Samples were probed for NEK7 and β-actin protein levels by JESS, and quantified relative to vehicle control.
In Table 10, concentration of Compound 14 in NHP plasma following administration via oral gavage after 7 days post dose at 30 mg/kg is reported. NHP received daily oral administration of 30 mg/kg of Compound 14 for 7 days, n=2.

IL-1β [3] = test: Ex vivo whole blood stimulation (LPS/nigericin) IL-1β ELISA after dosing of NHP; type: in vivo, cynomolgus monkeys; settings: oral 5 mg/kg for 5 days
Description: Within 0.5 h of blood collection from animals that received vehicle or Compound 14 at 5 mg/kg, whole blood was aliquoted into two 0.25 mL aliquots. One aliquot was used as baseline, and the other as the ex vivo stimulated condition. For stimulation, whole blood was incubated with 100 ng/mL Lipopolysaccharide from Escherichia coli 0111:B4 (LPS-EB) for 3 h, followed by 10 μM nigericin for 2 h. Plasma was then isolated and concentrations of IL-1β in plasma isolated from ex vivo whole blood stimulation were measured using the IL-1β ELISA R&D Systems kit (Cat. #DY1318), with 50 μL per sample diluted with 50 μL reagent diluent/well. After reading absorbance on plate reader, standard curve and sample IL-1β levels were analyzed using 4PL method. […]
In Table 9, suppression of ex vivo inflammasome activation following degradation of NEK7 in NHP is reported. Whole blood was isolated at the indicated time points from NHP dosed orally 5 mg/kg of Compound 14 over 5 days (day 1 through 5), n=2. Days 10 and 15 correspond to recovery period, 5 or 10 days after drug administration, respectively. Whole blood was stimulated ex vivo with 100 ng/mL LPS for 3 h and 10 μM nigericin for 2 h. Plasma was isolated and IL-1β was measured by ELISA. […]

NEK7 = NEK7 level in PBMC of NHP after oral dosing; type: in vivo, cynomolgus monkeys; settings: oral 5 mg/kg for 5 days
Description: Non-naïve male and female non-human primate (NHP) cynomolgus monkeys were orally administered with 5 consecutive daily doses of Compound 14 at 5 mg/kg, n=2 per dose group, 1 male and 1 female. Compound formulation was prepared on the day of administration in 0.5% methyl cellulose (4000 cps) in water and animals were fasted overnight. Plasma collected post dose were analyzed using a non GLP LC/MS/MS bioanalytical method to evaluate the compound concentration. Whole blood collected post dose were processed to PBMC and were analyzed using western blot method. Plasma pharmacokinetics and PMBC pharmacodynamics were assessed longitudinally throughout dosing and following dosing cessation.
In Table 8 compound 14 induces NEK7 degradation in vivo. NEK7 protein levels were assessed in PBMC isolated from NHP after oral administration for 5 consecutive days of Compound 14 at 5 mg/kg, n=2 per dose group. NEK7 levels were normalized to β-actin, as determined by JESS, at the indicated time points. NEK7 level at pre dose was normalized to 100%. Days 10 and 15 correspond to recovery period, 5 or 10 days after drug administration, respectively.

[4] = both sexes, monkey, plasma, po, 30 mg/kg
[5] = both sexes, non-human primate (NHP)

Cc1cnc(C(C)(C)C(=O)NCc2cc(Cl)c(C3CCC(=O)NC3=O)c(Cl)c2)nc1 (stereo not drawn) [Compound 14, N-(3,5-dichloro-4-(2,6-dioxopiperidin-3-yl)benzyl)-2-methyl-2-(5-methylpyrimidin-2-yl)-propanamide]
IL-1β Imax (IL-1β [1]): 70%
IC50 (IL-1β [1]; Homo sapiens, Macrophage): 1.1 nM
Cmax ([2]; both sexes, monkey): 6600 ng/mL
Tmax ([2]; both sexes, monkey): 1.75 h
AUC0-24h [2, 4]: 36600 ng·h/mL
AUC(0-t) [2, 4]: 27200 ng·h/mL
Cmax [2, 5]: 6600 ng/mL
Tmax [2, 5]: 1.75 h
tlast [2]: 8 h
Percent IL-1β relative to predose (IL-1β [3]; Day 1, 6 h): 1%
Percent IL-1β relative to predose (IL-1β [3]; Day 1, 24 h): 45%
Percent IL-1β relative to predose (IL-1β [3]; Day 5, 6 h): 0%
Percent IL-1β relative to predose (IL-1β [3]; Day 5, 24 h): 78%
Percent IL-1β relative to predose (IL-1β [3]; Day 10, 24 h (recovery)): 91.5%
Percent IL-1β relative to predose (IL-1β [3]; Day 15, 24 h (recovery)): 141%
Average percent NEK7/β-actin in PBMC, relative to predose (NEK7; Day 1, 6 h): 56%
Average percent NEK7/β-actin in PBMC, relative to predose (NEK7; Day 1, 24 h): 44%
Average percent NEK7/β-actin in PBMC, relative to predose (NEK7; Day 5, 6 h): 27%
Average percent NEK7/β-actin in PBMC, relative to predose (NEK7; Day 5, 24 h): 15%
Average percent NEK7/β-actin in PBMC, relative to predose (NEK7; Day 10, 24 h (recovery)): 45%
Average percent NEK7/β-actin in PBMC, relative to predose (NEK7; Day 15, 24 h (recovery)): 141%

Reference: US20250243180A1, “TARGETED PROTEIN DEGRADATION” (Monte Rosa Therapeutics AG, priority 2023, published 2025)
